Tested on: rat aorta
Test: inhibition of calcium-induced contraction (change in tension) of spirally cut strips of rat aorta in K+ 45 mM saline
Assay type: cell-based
Conditions: 0.75 h, 45 millimolar potassium, 2 millimolar calcium, 45 minutes, read-out: IC50 (molar concentration required to reduce the response by 50%)
Method: The ability of the compounds to inhibit the movement of calcium into the cell is shown by their effectiveness in reducing the response of isolated heart tissue to an increase in calcium ion concentration in vitro. The test is performed by mounting spirally cut strips of rat aorta with one end fixed and the other attached to a force transducer. The tissue is immersed in a bath of physiological saline solution containing potassium ions at a concentration of 45 millimolar and no calcium. Calcium chloride is added to the bath with a pipette to give a final calcium ion concentration of 2 millimolar. The change in tension caused by the resulting contraction of the tissue is noted. The bath is drained and replaced with fresh saline solution and, after 45 minutes, the test is repeated with the particular compound under test present in the saline solution. The concentration of compound required to reduce the response by 50% (IC50) is recorded.
The molar concentrations of the compounds required to reduce the response by 50% in the test specified on pages 16-17 are given below (1M=1 gm.Mole/liter).

Structure (SMILES) | IC50
CCOC(=O)C1=C(COCCNc2cc(N3CCCCC3)ncn2)NC(C)=C(C(=O)OC)C1c1cccc(Cl)c1Cl (stereo not drawn) [Example 82] | 4.07 nM
CCOC(=O)C1=C(COCCNc2nc(N)n(C)n2)NC(C)=C(C(=O)OC)C1c1ccccc1Cl (stereo not drawn) [Example 4] | 8.12 nM
CCOC(=O)C1=C(COCCNc2cc(N3CCOCC3)ncn2)NC(C)=C(C(=O)OC)C1c1ccccc1Cl (stereo not drawn) [Example 86] | 1.58 nM
CCOC(=O)C1=C(COCCNc2n[s+]([O-])nc2OC)NC(C)=C(C(=O)OC)C1c1cccc(C(F)(F)F)c1Cl (stereo not drawn) [Example 66] | 2.24 nM
CCOC(=O)C1=C(COCCNc2nnc(N)[nH]2)NC(C)=C(C(=O)OC)C1c1cccc(Cl)c1Cl (stereo not drawn) [Example 3B] | 6.02 nM
CCOC(=O)C1=C(COCCNC2=NC(=O)CS2)NC(C)=C(C(=O)OC)C1c1ccccc1Cl (stereo not drawn) [Example 74] | 20 nM
CCOC(=O)C1=C(COCCNc2cc(Cl)ncn2)NC(C)=C(C(=O)OC)C1c1cccc(Cl)c1Cl (stereo not drawn) [Example 53] | 3160 nM
CCOC(=O)C1=C(COCCNc2ccc(S(N)(=O)=O)cn2)NC(C)=C(C(=O)OC)C1c1ccccc1Cl (stereo not drawn) [Example 35] | 5.75 nM
CCOC(=O)C1=C(COCCNc2nccc(=O)[nH]2)NC(C)=C(C(=O)OC)C1c1cccc(Cl)c1Cl (stereo not drawn) [Example 39] | 2.69 nM
CCOC(=O)C1=C(COCCNc2n[s+]([O-])nc2OC)NC(C)=C(C(=O)OC)C1c1ccccc1Cl (stereo not drawn) [Example 65] | 25.1 nM
CCOC(=O)C1=C(COCCNc2nc(N)nc(N)n2)NC(C)=C(C(=O)OC)C1c1ccccc1Cl (stereo not drawn) [Example 11] | 426 nM
CCOC(=O)C1=C(COCCNc2nccc(N)n2)NC(C)=C(C(=O)OC)C1c1ccccc1Cl (stereo not drawn) [Example 27] | 3.98 nM
CCOC(=O)C1=C(COCCNc2cc(=O)[nH]cn2)NC(C)=C(C(=O)OC)C1c1cccc(Cl)c1Cl (stereo not drawn) [Example 41] | 0.776 nM
CCOC(=O)C1=C(COCCNc2n[s+]([O-])nc2N)NC(C)=C(C(=O)OC)C1c1cccc(Cl)c1Cl (stereo not drawn) [Example 67, 3-{2-[(4-{2,3-Dichlorophenyl}-3-ethoxycarbonyl-5-methoxycarbonyl-6-methyl-1,4-dihydropyrid-2-yl)methoxy]ethylamino}-4-amino-1,2,5-thiadiazole-1-oxide hemihydrate] | 19.9 nM
CCOC(=O)C1=C(COCCNc2ncc(S(=O)(=O)N(C)C)s2)NC(C)=C(C(=O)OC)C1c1ccccc1Cl (stereo not drawn) [Example 26] | 3.71 nM
CCOC(=O)C1=C(COCCNC2=NCC(=O)N2)NC(C)=C(C(=O)OC)C1c1cccc(Cl)c1Cl (stereo not drawn) [Example 37] | 10 nM
CCOC(=O)C1=C(COCCNc2ccc(C(N)=O)cn2)NC(C)=C(C(=O)OC)C1c1ccccc1Cl (stereo not drawn) [Example 22] | 18.2 nM
CCOC(=O)C1=C(COCCNc2nc(C)cs2)NC(C)=C(C(=O)OC)C1c1ccccc1Cl (stereo not drawn) [Example 72] | 39.8 nM
CCOC(=O)C1=C(COCCNc2nc(NC(=O)NC)n(C)n2)NC(C)=C(C(=O)OC)C1c1ccccc1Cl (stereo not drawn) [Example 79, hydrate] | 6.6 nM
CCOC(=O)C1=C(COCCNc2nc(-c3ccccc3)cc(=O)[nH]2)NC(C)=C(C(=O)OC)C1c1cccc(Cl)c1Cl (stereo not drawn) [Example 43] | 8.31 nM
CCOC(=O)C1=C(COCCNc2n[nH]c(O)n2)NC(C)=C(C(=O)OC)C1c1cccc(Cl)c1Cl (stereo not drawn) [Example 90B, 4-(2,3-Dichlorophenyl)-3-ethoxycarbonyl-2-[2-(5-hydroxy-1H-1,2,4-triazol-3-ylamino)ethoxymethyl]-5-methoxycarbonyl-6-methyl-1,4-dihydropyridine hydrate] | 10 nM
CCOC(=O)C1=C(COCCNc2cc(N3CCOCC3)ncn2)NC(C)=C(C(=O)OC)C1c1cccc(C(F)(F)F)c1Cl (stereo not drawn) [Example 88, 4-(2-Chloro-3-trifluoromethylphenyl)-3-ethoxycarbonyl-5-methoxycarbonyl-6-methyl-[2-(6-morpholino-pyrimidin-4-ylamino)ethoxymethyl]-1,4-dihydropyridin] | 0.126 nM
CCOC(=O)C1=C(COCCNc2ccncn2)NC(C)=C(C(=O)OC)C1c1ccccc1Cl (stereo not drawn) [Example 10] | 1.9 nM
CCOC(=O)C1=C(COCCNc2nc(N)n(C)n2)NC(C)=C(C(=O)OC)C1c1cccc(Cl)c1Cl (stereo not drawn) [Example 5] | 3.02 nM
CCOC(=O)C1=C(COCCNc2ccc(C(N)=O)cn2)NC(C)=C(C(=O)OC)C1c1cccc(C(F)(F)F)c1Cl (stereo not drawn) [Example 63] | 2.95 nM
CCOC(=O)C1=C(COCCNc2cncc(Cl)n2)NC(C)=C(C(=O)OC)C1c1cccc(Cl)c1Cl (stereo not drawn) [Example 52] | 6.02 nM

Structure (SMILES) | IC50
CCOC(=O)C1=C(COCCNc2ccc(S(=O)(=O)N3CCCCC3)cn2)NC(C)=C(C(=O)OC)C1c1cccc(Cl)c1Cl (stereo not drawn) [Example 46] | 3.01 nM
CCOC(=O)C1=C(COCCNc2nc(C(=O)NC)cs2)NC(C)=C(C(=O)OC)C1c1ccccc1Cl (stereo not drawn) [Example 77, 4-(2-Chlorophenyl)-3-ethoxycarbonyl-5-methoxycarbonyl-6-methyl-2-[2-(4-[N-methylcarbamoyl]-thiazol-2-ylamino)ethoxymethyl]-1,4-dihydropyridine] | 5.37 nM
CCOC(=O)C1=C(COCCNc2nc(C)cc(=O)[nH]2)NC(C)=C(C(=O)OC)C1c1cccc(C(F)(F)F)c1Cl (stereo not drawn) [Example 61] | 2.24 nM
CCOC(=O)C1=C(COCCNc2cnccn2)NC(C)=C(C(=O)OC)C1c1cccc(Cl)c1Cl (stereo not drawn) [Example 89, 4-(2,3-Dichlorophenyl)-3-ethoxycarbonyl-5-methoxycarbonyl-6-methyl-2-[2-(pyrazin-2-ylamino)ethoxymethyl]-1,4-dihydropyridine] | 0.501 nM
CCOC(=O)C1=C(COCCNc2ccc(S(=O)(=O)N3CCN(C=O)CC3)cn2)NC(C)=C(C(=O)OC)C1c1ccccc1Cl (stereo not drawn) [Example 36] | 3.16 nM
CCOC(=O)C1=C(COCCNc2nc3ccccc3nc2Cl)NC(C)=C(C(=O)OC)C1c1cccc(Cl)c1Cl (stereo not drawn) [Example 49] | 3.98 nM
CCOC(=O)C1=C(COCCNc2ccc(S(=O)(=O)N3CCOCC3)cn2)NC(C)=C(C(=O)OC)C1c1cccc(Cl)c1Cl (stereo not drawn) [Example 45] | 1.09 nM
CCOC(=O)C1=C(COCCNc2n[s+]([O-])nc2N)NC(C)=C(C(=O)OC)C1c1ccccc1Cl (stereo not drawn) [Example 68] | 13.1 nM
CCOC(=O)C1=C(COCCNc2n[s+]([O-])nc2OC)NC(C)=C(C(=O)OC)C1c1cccc(Cl)c1Cl (stereo not drawn) [Example 64, 3-{2-[(4-{2,3-Dichlorophenyl}-3-ethoxycarbonyl-5-methoxycarbonyl-6-methyl-1,4-dihydropyrid-2-yl)methoxy]ethylamino}-4-methoxy-1,2,5-thiadiazole-1-oxid] | 10 nM
CCOC(=O)C1=C(COCCNc2cc(=O)n(C)cn2)NC(C)=C(C(=O)OC)C1c1ccccc1Cl (stereo not drawn) [Example 30] | 2.34 nM
CCOC(=O)C1=C(COCCNc2cc(=O)[nH]cn2)NC(C)=C(C(=O)OC)C1c1ccccc1Cl (stereo not drawn) [Example 14] | 10 nM
CCOC(=O)C1=C(COCCNc2nc(C(C)=O)c[nH]2)NC(C)=C(C(=O)OC)C1c1cccc(Cl)c1Cl (stereo not drawn) [Example 91B, 2-[2-(4-acetylimidazol-2-ylamino)ethoxymethyl]-4-(2,3-dichlorophenyl)-3-ethoxycarbonyl-5-methoxycarbonyl-6-methyl-1,4-dihydropyridine] | 2.5 nM
CCOC(=O)C1=C(COCCNc2nc(N)n[nH]2)NC(C)=C(C(=O)OC)C1c1ccccc1Cl (stereo not drawn) [Example 1B, 2-[2-(3-Amino-1H-1,2,4-triazol-5-ylamino)ethoxymethyl]-4-(2-chlorophenyl)-3-ethoxycarbonyl-5-methoxycarbonyl-6-methyl-1,4-dihydropyridine] | 20 nM
CCOC(=O)C1=C(COCCNc2nccc(C(N)=O)n2)NC(C)=C(C(=O)OC)C1c1ccccc1Cl (stereo not drawn) [Example 29] | 18.1 nM
CCOC(=O)C1=C(COCCNc2cc(N3CCOCC3)ncn2)NC(C)=C(C(=O)OC)C1c1cccc(Cl)c1Cl (stereo not drawn) [Example 80, 4-(2,3-Dichlorophenyl)-3-ethoxycarbonyl-5-methoxycarbonyl-6-methyl-[2-(6-morpholinopyrimidin-4-ylamino)ethoxymethyl]-1,4-dihydropyridine] | 1.34 nM
CCOC(=O)C1=C(COCCNc2cc(=O)n(C)c(=O)n2C)NC(C)=C(C(=O)OC)C1c1ccccc1Cl (stereo not drawn) [Example 15] | 50.1 nM
CCOC(=O)C1=C(COCCNc2nc(C)cc(=O)[nH]2)NC(C)=C(C(=O)OC)C1c1cccc(Cl)c1Cl (stereo not drawn) [Example 42] | 4.16 nM
CCOC(=O)C1=C(COCCNc2nccnc2N2CCOCC2)NC(C)=C(C(=O)OC)C1c1ccccc1Cl (stereo not drawn) [Example 87] | 100 nM
CCOC(=O)C1=C(COCCNc2nccnc2Cl)NC(C)=C(C(=O)OC)C1c1cccc(Cl)c1Cl (stereo not drawn) [Example 51] | 2.51 nM
CCOC(=O)C1=C(COCCNC2=NC(C)(C)C(=O)N2)NC(C)=C(C(=O)OC)C1c1cccc(Cl)c1Cl (stereo not drawn) [Example 38] | 25.1 nM
CCOC(=O)C1=C(COCCNC2=NC(C)(C)C(=O)N2)NC(C)=C(C(=O)OC)C1c1ccccc1Cl (stereo not drawn) [Example 23] | 100 nM
CCOC(=O)C1=C(COCCNc2noc(N)n2)NC(C)=C(C(=O)OC)C1c1ccccc1Cl (stereo not drawn) [Example 6, 2-[2-(5-Amino-1,2,4-oxadiazol-3-ylamino)ethoxymethyl]-4-(2-chlorophenyl)-3-ethoxycarbonyl-5-methoxycarbonyl-6-methyl-1,4-dihydropyridine] | 11.5 nM
CCOC(=O)C1=C(COCCNc2cc[nH]c(=O)n2)NC(C)=C(C(=O)OC)C1c1cccc(C(F)(F)F)c1Cl (stereo not drawn) [Example 62] | 1.35 nM
CCOC(=O)C1=C(COCCNc2ccnc(N)n2)NC(C)=C(C(=O)OC)C1c1ccccc1Cl (stereo not drawn) [Example 13] | 6.3 nM
CCOC(=O)C1=C(COCCNc2nccc(C#N)n2)NC(C)=C(C(=O)OC)C1c1ccccc1Cl (stereo not drawn) [Example 28] | 13.1 nM

Reference: US4572908A, “Dihydropyridines” (Pfizer Inc., priority 1982, dated 1986)
